From patent US20050107465A1, “Composition for treating inflammatory bowel disease” (priority 2003, published 2005)
“Also recorded” adds a separate entry of the source.

Test system: MAdCAM-1 expression in murine colon microvessel endothelial cells
Assay: Western blot assay for TNF-α induced MAdCAM-1 expression in murine colon microvessel endothelial cells
Format: cell-based
Settings: EC monolayer pre-treated with test agent, then TNF-α 20 ng/ml for 24 hours, western blot densitometry (FIG. 2)
Experimental: A line of murine colon microvessel endothelial cells was developed for use as an in vitro model of colon inflammatory adhesion molecule expression in IBD. Immortomouse mice were used as tissue sources for these studies. Colon segments were sterilely removed and treated with collagenase (0.2%, 45 min) and cultured in d-valine MEM with IFN-g (10 U/ml) with 2% FCS and non-essential amino acids and vitamins. These cells were cultured on gelatin and were maintained at 37 C. for 24 hours prior to exposure to treatment protocols. In treatments, cells cultured on 24 well plates were incubated in either medium, or medium containing antioxidant or antioxidant admixture ± vitamin E TPGS for 24-48 hour prior to the administration of inflammatory cytokine (TNF-α, 20 ng/ml). At 24 hours combined treatments, monolayers were evaluated for MAdCAM-1 by standard western blotting.
EC cells developed as above were cultured in 2% fetal calf serum, with 50 U/ml interferon-gamma, d-valine supplemented MEM, 1% penicillin/streptomycin and 1 % non-essential amino acids using tissue culture were pre-coated with 1 % gelatin. Adhesion molecule expression was measured in these cells by switching cells to medium without interferon, culturing for 48 hours and then pre-treating cells with test agents for 24 hours prior to exposure to TNF-α for an additional 24 hours. MAdCAM-1 expression was measured using standard western blotting procedures described above. One hundred μg of protein was loaded per lane in non-denaturing sample buffer (w/o mercaptoethanol) and electrophoresed, and subsequently transferred to nitrocellulose. After blocking (5% milk, 2 h), blots were incubated in MAdCAM-1 antibody (10 ug/ml) for 12 hours and reacted by enhanced chemiluminescence (ECL). Gels were analyzed by densitometric analysis by scanning x-ray replicas of the exposed blots.
A murine colon microvessel endothelial cell line (EC monolayer) was developed as described above. Cytokine induced MAdCAM-1 expression in these cells was determined via Western Blot assay described above. An initial experiment evaluated the ability of gamma-tocopherol alone or formulated with vitamin E TPGS to block cytokine induction of MAdCAM-1 in this cell line is shown in FIG. 2.

Compound	effect on cytokine induced MAdCAM-1 expression (in words)	effect on cytokine induced MAdCAM-1 expression (in words) (listed as coenzyme Q10)	decrease in MAdCAM-1 expression	effect on cytokine induced MAdCAM-1 expression (in words) (listed as vitamin E TGPS)
COC1=C(OC)C(=O)C(C/C=C(\C)CC/C=C(\C)CC/C=C(\C)CC/C=C(\C)CC/C=C(\C)CC/C=C(\C)CC/C=C(\C)CC/C=C(\C)CC/C=C(\C)CCC=C(C)C)=C(C)C1=O [Coenzyme Q10]	less beneficial than alpha-tocopherol therapy	relatively minor effect	–	–
Cc1c(C)c2c(c(C)c1O)CC[C@@](C)(CCC[C@H](C)CCC[C@H](C)CCCC(C)C)O2 [alpha-tocopherol]	relatively minor effect; also recorded: significantly less effective than gamma-tocopherol alone	–	–	–
Cc1c(O)cc2c(c1C)O[C@](C)(CCC[C@H](C)CCC[C@H](C)CCCC(C)C)CC2 [gamma-tocopherol]	significantly decrease	–	at least 50%	–
vitamin E TPGS	relatively small effect; also recorded: only a slight decrease	–	–	relatively minor effect
